{"source": "PubChem BioAssay AID256", "about": "(DTP/NCI, 2004)", "system": "CD2F1 mice, L1210 leukemia ip, survival T/C", "test": "NCI In Vivo Anticancer Drug Screen. Data for tumor model L1210 Leukemia (intraperitoneal) in CD2F1 (CDF1) mice", "settings": "higher = longer survival", "in_short": "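Mice carrying a transplanted tumor received test compound or vehicle alone. The value is the measurement in the treated group divided by that in the vehicle-treated control group.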", "key": {"[1]": {"settings": "endpoint: mean survival time, dose: 25.0 mg/kg/injection, schedule: Q01DX009 (ip), vehicle: saline"}, "[2]": {"settings": "endpoint: mean survival time, dose: 50.0 mg/kg/injection, schedule: Q01DX009 (ip), vehicle: saline"}, "[3]": {"settings": "endpoint: mean survival time, dose: 100.0 mg/kg/injection, schedule: Q01DX009 (ip), vehicle: saline"}}, "note": "Several values for one entry are separate records, joined by “and”; a condition that tells them apart may be missing. Equal entries are not always repeated. Inconclusive results and toxic doses are left out.", "data": [{"compound": "Cc1cn(CC(O)c2cc3ccccc3[nH]2)c(=O)[nH]c1=O", "note": "(stereo not drawn)", "values": [{"measurement": "T/C", "setting": "endpoint: mean survival time, dose: 100.0 mg/kg/injection, schedule: Q04DX002 (ip), vehicle: saline with Tween-80", "result": "97 % of control"}, {"measurement": "T/C", "setting": "endpoint: mean survival time, dose: 200.0 mg/kg/injection, schedule: Q04DX002 (ip), vehicle: saline with Tween-80", "result": "97 % of control"}, {"measurement": "T/C", "setting": "endpoint: mean survival time, dose: 400.0 mg/kg/injection, schedule: Q04DX002 (ip), vehicle: saline with Tween-80", "result": "93 % of control"}]}, {"compound": "CCCC1C(=O)N=C(N)NC1=O", "note": "(stereo not drawn)", "values": [{"measurement": "T/C", "setting": "endpoint: mean survival time, dose: 100.0 mg/kg/injection, schedule: Q01DX001 (ip), vehicle: Klucel (hydroxypropylcellulose) (HPC)", "result": "97 % of control"}, {"measurement": "T/C", "setting": "endpoint: mean survival time, dose: 200.0 mg/kg/injection, schedule: Q01DX001 (ip), vehicle: Klucel (hydroxypropylcellulose) (HPC)", "result": "104 % of control"}, {"measurement": "T/C", "setting": "endpoint: mean survival time, dose: 400.0 mg/kg/injection, schedule: Q01DX001 (ip), vehicle: Klucel (hydroxypropylcellulose) (HPC)", "result": "101 % of control"}]}, {"compound": "Nc1ncnc2c1ncn2C1OC(COP(=O)(O)O)C(O)C1O", "note": "(stereo not drawn)", "values": [{"measurement": "T/C", "setting": "endpoint: mean survival time, dose: 9.4 mg/kg/injection, schedule: Q03HX016 (ip), vehicle: water", "result": "106 % of control"}, {"measurement": "T/C", "setting": "endpoint: mean survival time, dose: 9.4 mg/kg/injection, schedule: Q03HX024 (ip), vehicle: water", "result": "109 % of control"}, {"measurement": "T/C", "setting": "endpoint: mean survival time, dose: 12.5 mg/kg/injection, schedule: Q01DX009 (ip), vehicle: saline", "result": "98 % of control"}, {"measurement": "T/C", "setting": "endpoint: mean survival time, dose: 12.5 mg/kg/injection, schedule: Q01DX009 (ip), vehicle: water", "result": "103 % of control"}, {"measurement": "T/C", "setting": "endpoint: mean survival time, dose: 18.8 mg/kg/injection, schedule: Q03HX016 (ip), vehicle: water", "result": "110 % of control"}, {"measurement": "T/C", "setting": "endpoint: mean survival time, dose: 18.8 mg/kg/injection, schedule: Q03HX024 (ip), vehicle: water", "result": "107 % of control"}, {"measurement": "T/C", "setting": "[1]", "result": "104 % of control"}, {"measurement": "T/C", "setting": "endpoint: mean survival time, dose: 25.0 mg/kg/injection, schedule: Q01DX009 (ip), vehicle: water", "result": "107 % of control"}, {"measurement": "T/C", "setting": "endpoint: mean survival time, dose: 27.5 mg/kg/injection, schedule: Q03DX024 (ip), vehicle: saline", "result": "107 % of control"}, {"measurement": "T/C", "setting": "endpoint: mean survival time, dose: 27.5 mg/kg/injection, schedule: Q04DX003 (ip), vehicle: saline", "result": "105 % of control"}, {"measurement": "T/C", "setting": "endpoint: mean survival time, dose: 36.7 mg/kg/injection, schedule: Q03DX024 (ip), vehicle: saline", "result": "115 % of control"}, {"measurement": "T/C", "setting": "endpoint: mean survival time, dose: 36.7 mg/kg/injection, schedule: Q04DX003 (ip), vehicle: saline", "result": "103 % of control"}, {"measurement": "T/C", "setting": "endpoint: mean survival time, dose: 37.5 mg/kg/injection, schedule: Q03HX016 (ip), vehicle: water", "result": "114 % of control"}, {"measurement": "T/C", "setting": "endpoint: mean survival time, dose: 37.5 mg/kg/injection, schedule: Q03HX024 (ip), vehicle: water", "result": "113 % of control"}, {"measurement": "T/C", "setting": "[2]", "result": "100 % of control"}, {"measurement": "T/C", "setting": "endpoint: mean survival time, dose: 50.0 mg/kg/injection, schedule: Q01DX009 (ip), vehicle: water", "result": "109 % of control"}, {"measurement": "T/C", "setting": "endpoint: mean survival time, dose: 55.0 mg/kg/injection, schedule: Q03DX024 (ip), vehicle: saline", "result": "112 % of control"}, {"measurement": "T/C", "setting": "endpoint: mean survival time, dose: 55.0 mg/kg/injection, schedule: Q04DX003 (ip), vehicle: saline", "result": "104 % of control"}, {"measurement": "T/C", "setting": "endpoint: mean survival time, dose: 73.3 mg/kg/injection, schedule: Q03DX024 (ip), vehicle: saline", "result": "118 % of control"}, {"measurement": "T/C", "setting": "endpoint: mean survival time, dose: 73.3 mg/kg/injection, schedule: Q04DX003 (ip), vehicle: saline", "result": "106 % of control"}, {"measurement": "T/C", "setting": "endpoint: mean survival time, dose: 75.0 mg/kg/injection, schedule: Q03HX016 (ip), vehicle: water", "result": "115 % of control"}, {"measurement": "T/C", "setting": "endpoint: mean survival time, dose: 75.0 mg/kg/injection, schedule: Q03HX024 (ip), vehicle: water", "result": "118 % of control"}, {"measurement": "T/C", "setting": "[3]", "result": "102 % of control"}, {"measurement": "T/C", "setting": "endpoint: mean survival time, dose: 100.0 mg/kg/injection, schedule: Q01DX009 (ip), vehicle: water", "result": "115 % of control"}, {"measurement": "T/C", "setting": "endpoint: mean survival time, dose: 200.0 mg/kg/injection, schedule: Q01DX009 (ip), vehicle: saline", "result": "102 % of control and 108 % of control"}, {"measurement": "T/C", "setting": "endpoint: mean survival time, dose: 200.0 mg/kg/injection, schedule: Q01DX009 (ip), vehicle: water", "result": "119 % of control"}, {"measurement": "T/C", "setting": "endpoint: mean survival time, dose: 315.0 mg/kg/injection, schedule: Q01DX009 (ip), vehicle: saline", "result": "106 % of control"}, {"measurement": "T/C", "setting": "endpoint: mean survival time, dose: 375.0 mg/kg/injection, schedule: Q03HX024 (ip), vehicle: saline", "result": "156 % of control"}, {"measurement": "T/C", "setting": "endpoint: mean survival time, dose: 400.0 mg/kg/injection, schedule: Q01DX009 (ip), vehicle: saline", "result": "114 % of control and 102 % of control"}, {"measurement": "T/C", "setting": "endpoint: mean survival time, dose: 470.0 mg/kg/injection, schedule: Q01DX009 (ip), vehicle: saline", "result": "110 % of control"}, {"measurement": "T/C", "setting": "endpoint: mean survival time, dose: 700.0 mg/kg/injection, schedule: Q01DX009 (ip), vehicle: saline", "result": "112 % of control"}, {"measurement": "T/C", "setting": "endpoint: mean survival time, dose: 800.0 mg/kg/injection, schedule: Q01DX009 (ip), vehicle: saline", "result": "122 % of control"}, {"measurement": "T/C", "setting": "endpoint: median survival time, dose: 20.0 mg/kg/injection, schedule: Q01DX009 (ip), vehicle: water", "result": "102 % of control"}, {"measurement": "T/C", "setting": "endpoint: median survival time, dose: 40.0 mg/kg/injection, schedule: Q01DX009 (ip), vehicle: water", "result": "105 % of control and 107 % of control"}, {"measurement": "T/C", "setting": "endpoint: median survival time, dose: 80.0 mg/kg/injection, schedule: Q01DX009 (ip), vehicle: water", "result": "124 % of control and 108 % of control"}, {"measurement": "T/C", "setting": "endpoint: median survival time, dose: 160.0 mg/kg/injection, schedule: Q01DX009 (ip), vehicle: water", "result": "117 % of control"}]}, {"compound": "CCOC1=C(C)C(=O)C1C", "note": "(stereo not drawn)", "values": [{"measurement": "T/C", "setting": "endpoint: mean survival time, dose: 100.0 mg/kg/injection, schedule: Q04DX003 (ip), vehicle: saline", "result": "100 % of control"}, {"measurement": "T/C", "setting": "endpoint: mean survival time, dose: 200.0 mg/kg/injection, schedule: Q04DX003 (ip), vehicle: saline", "result": "94 % of control"}, {"measurement": "T/C", "setting": "endpoint: mean survival time, dose: 400.0 mg/kg/injection, schedule: Q04DX003 (ip), vehicle: saline", "result": "100 % of control"}]}, {"compound": "CC[N+](C)(CC)CCNC(=O)C(c1ccccc1)c1ccccc1", "values": [{"measurement": "T/C", "setting": "[1]", "result": "104 % of control"}, {"measurement": "T/C", "setting": "[2]", "result": "102 % of control"}, {"measurement": "T/C", "setting": "[3]", "result": "95 % of control"}]}]}
